Values joined by “and” are separate entries in the source; they are usually repeats but may differ in a detail not shown here. Equal values may be shown once. Toxic doses and inconclusive results are not listed. The calls were made as follows: active = survival T/C of 150% or more; inactive = T/C below 125% in these data.
System: P388 leukemia ip, CD2F1 mice, survival T/C
Assay: NCI In Vivo Anticancer Drug Screen. Data for tumor model P388 Leukemia (intraperitoneal) in CD2F1 (CDF1) mice
Conditions: endpoint: median survival time, higher = longer survival
In short: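 Mice carrying the transplanted tumor received test compound or vehicle. Survival was recorded in each group, and the value is the treated-group measurement divided by that of the vehicle-treated control group.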

[1] = dose: 60.0 mg/kg/injection, schedule: Q01DX005 (ip), vehicle: saline with Tween-80
[2] = dose: 50.0 mg/kg/injection, schedule: Q01DX009 (ip), vehicle: saline with Tween-80
[3] = dose: 100.0 mg/kg/injection, schedule: Q01DX009 (ip), vehicle: saline with Tween-80
[4] = dose: 120.0 mg/kg/injection, schedule: Q01DX005 (ip), vehicle: saline with Tween-80
[5] = dose: 240.0 mg/kg/injection, schedule: Q01DX005 (ip), vehicle: saline with Tween-80
[6] = dose: 100.0 mg/kg/injection, schedule: Q01DX001 (ip), vehicle: saline
[7] = dose: 200.0 mg/kg/injection, schedule: Q01DX001 (ip), vehicle: saline
[8] = dose: 400.0 mg/kg/injection, schedule: Q01DX001 (ip), vehicle: saline
[9] = dose: 60.0 mg/kg/injection, schedule: Q01DX005 (ip), vehicle: Klucel (hydroxypropylcellulose) (HPC)
[10] = dose: 120.0 mg/kg/injection, schedule: Q01DX005 (ip), vehicle: Klucel (hydroxypropylcellulose) (HPC)
[11] = dose: 50.0 mg/kg/injection, schedule: Q01DX005 (ip), vehicle: Klucel (hydroxypropylcellulose) (HPC)
[12] = dose: 100.0 mg/kg/injection, schedule: Q01DX005 (ip), vehicle: Klucel (hydroxypropylcellulose) (HPC)
[13] = dose: 200.0 mg/kg/injection, schedule: Q01DX005 (ip), vehicle: Klucel (hydroxypropylcellulose) (HPC)
[14] = dose: 50.0 mg/kg/injection, schedule: Q01DX009 (ip), vehicle: Klucel (hydroxypropylcellulose) (HPC)
[15] = dose: 100.0 mg/kg/injection, schedule: Q01DX009 (ip), vehicle: Klucel (hydroxypropylcellulose) (HPC)

Measured: T/C

O=C(Nc1ccccc1Cl)Oc1ccc(C(=O)c2ccccc2)cc1
inactive: dose: 15.0 mg/kg/injection, schedule: Q01DX005 (ip), vehicle: saline with Tween-80 100 % of control | dose: 30.0 mg/kg/injection, schedule: Q01DX005 (ip), vehicle: saline with Tween-80 97 % of control | [1] 90 % of control

Cl/N=C(\Nc1ccccc1)c1ccccn1
inactive: [2] 105 % of control | [3] 96 % of control

CCc1ccccc1NC(=O)C(=O)CC(=O)C1=C(C)Nc2ccccc2S1
inactive: [1] 90 % of control | [4] 96 % of control | [5] 99 % of control

Cc1cc(O)c2c(c1)C(=O)c1c(-c3ccc(O)c4c3C(=O)c3c(O)c(C)cc(O)c3C4=O)ccc(O)c1C2=O
inactive: dose: 3.0 mg/kg/injection, schedule: Q01DX005 (ip), vehicle: Klucel (hydroxypropylcellulose) (HPC) 95 % of control | dose: 6.0 mg/kg/injection, schedule: Q01DX005 (ip), vehicle: Klucel (hydroxypropylcellulose) (HPC) 95 % of control | dose: 12.0 mg/kg/injection, schedule: Q01DX005 (ip), vehicle: Klucel (hydroxypropylcellulose) (HPC) 93 % of control | dose: 24.0 mg/kg/injection, schedule: Q01DX005 (ip), vehicle: Klucel (hydroxypropylcellulose) (HPC) 86 % of control

Cc1onc(-c2ccccc2)c1C
inactive: [6] 99 % of control | [7] 102 % of control | [8] 105 % of control

CC1(C)N=C(N)N=C(N)N1c1ccccc1
inactive: dose: 25.0 mg/kg/injection, schedule: Q04DX003 (ip), vehicle: saline 104 % of control | dose: 50.0 mg/kg/injection, schedule: Q04DX003 (ip), vehicle: saline 112 % of control

Cn1cnc([N+](=O)[O-])c1Sc1cn(C2CC(O)C(CO)O2)c(=O)[nH]c1=O (centres undefined)
inactive: [9] 101 % of control | [10] 102 % of control | dose: 240.0 mg/kg/injection, schedule: Q01DX005 (ip), vehicle: Klucel (hydroxypropylcellulose) (HPC) 107 % of control

N#C[S][Hg][c]1ccccc1
inactive: [1] 106 % of control | [4] 98 % of control

CNCCCC12CC(c3ccccc31)c1ccccc12
inactive: [2] 94 % of control

Nc1snnc1C(=S)NC=S
inactive: [6] 102 % of control | [7] 105 % of control | [8] 100 % of control

ClC(Cl)=C(Cl)C(Cl)=C(Cl)Cl
inactive: dose: 50.0 mg/kg/injection, schedule: Q01DX001 (ip), vehicle: saline 108 % of control | [6] 100 % of control

CCCCN(CCCC)CCNc1ccc(C)c2sc3ccc([N+](=O)[O-])cc3c(=O)c12
inactive: [11] 100 % of control | [12] 99 % of control | [13] 100 % of control

O=S(=O)([O-])NC1CCCCC1.O=S(=O)([O-])NC1CCCCC1.[Hg+2].[Hg+2].[Hg+2].[O-2].[O-2]
inactive: dose: 0.5 mg/kg/injection, schedule: Q04DX003 (ip), vehicle: saline 96 % of control | dose: 1.0 mg/kg/injection, schedule: Q04DX003 (ip), vehicle: saline 100 % of control | dose: 2.0 mg/kg/injection, schedule: Q04DX003 (ip), vehicle: saline 100 % of control

CNCCc1c(C2[C@@H]3[C@H](C=C(C)CC3(C)C)[C@]34Nc5ccccc5[C@]23CCN4C)[nH]c2ccccc12 (some centres undefined)
inactive: dose: 4.0 mg/kg/injection, schedule: Q01DX009 (ip), vehicle: saline 100 % of control | dose: 8.0 mg/kg/injection, schedule: Q01DX009 (ip), vehicle: saline 94 % of control | dose: 16.0 mg/kg/injection, schedule: Q01DX009 (ip), vehicle: saline 103 % of control | dose: 32.0 mg/kg/injection, schedule: Q01DX009 (ip), vehicle: saline 100 % of control

CCOC(=O)Nc1cc(Cl)c2[nH]cnc2n1
inactive: [11] 97 % of control | [12] 101 % of control | [13] 108 % of control

CCCCCCCCCCCCCCCCON
inactive: [14] 103 % of control | [15] 111 % of control

COc1ccc(S(=O)(=O)N/N=C/C(=O)OCOC(=O)C(C)(C)C)cc1
inactive: dose: 5.0 mg/kg/injection, schedule: Q01DX005 (ip), vehicle: other 111 % of control | dose: 5.0 mg/kg/injection, schedule: Q01DX005 (ip), vehicle: saline + Tween-80 + alcohol 116 % of control | dose: 10.0 mg/kg/injection, schedule: Q01DX005 (ip), vehicle: saline + Tween-80 + alcohol 111 % of control | dose: 12.5 mg/kg/injection, schedule: Q01DX005 (ip), vehicle: saline + Tween-80 + alcohol 119 % of control | dose: 25.0 mg/kg/injection, schedule: Q01DX005 (ip), vehicle: saline + Tween-80 + alcohol 111 % of control

O=[N+]([O-])c1ccc(SC2=NCCN2Cc2ccccc2)c(Cl)c1
inactive: [2] 88 % of control | [3] 101 % of control | dose: 200.0 mg/kg/injection, schedule: Q01DX009 (ip), vehicle: saline with Tween-80 94 % of control

COc1ccc(CCN2CC(=O)N3CSCC3C2=O)cc1OC (centres undefined)
inactive: [1] 100 % of control | [4] 95 % of control | [5] 95 % of control

O=C1/C(=C/c2ccncc2)CCCc2ccccc21
inactive: [9] 102 % of control | [10] 104 % of control

COc1cc(OC2OC(CO)C(O)C(O)C2O)c2c(O)c3c(=O)cc(C)oc3cc2c1 (centres undefined)
inactive: dose: 3.75 mg/kg/injection, schedule: Q01DX009 (ip), vehicle: Klucel (hydroxypropylcellulose) (HPC) 100 % of control | dose: 7.5 mg/kg/injection, schedule: Q01DX009 (ip), vehicle: Klucel (hydroxypropylcellulose) (HPC) 100 % of control | dose: 15.0 mg/kg/injection, schedule: Q01DX009 (ip), vehicle: Klucel (hydroxypropylcellulose) (HPC) 94 % of control | dose: 30.0 mg/kg/injection, schedule: Q01DX009 (ip), vehicle: Klucel (hydroxypropylcellulose) (HPC) 101 % of control

CC(C)(C)N1CC(COc2ccc(Cl)cc2)OC1=O (centres undefined)
inactive: [14] 99 % of control | [15] 104 % of control | dose: 200.0 mg/kg/injection, schedule: Q01DX009 (ip), vehicle: Klucel (hydroxypropylcellulose) (HPC) 102 % of control

Nc1ncnc2c1ccn2C1OC(CO)C(O)C1O (centres undefined)
inactive: dose: 0.44 mg/kg/injection, schedule: Q01DX001 (ip), vehicle: saline 120 % of control | dose: 0.5 mg/kg/injection, schedule: Q01DX009 (ip), vehicle: water 113 % of control | dose: 0.88 mg/kg/injection, schedule: Q01DX001 (ip), vehicle: saline 110 % of control | dose: 8.0 mg/kg/injection, schedule: Q01DX010 (sc), vehicle: saline 105 % of control | dose: 16.0 mg/kg/injection, schedule: Q01DX010 (sc), vehicle: saline 110 % of control | dose: 55.0 micrograms/kg/injection, schedule: Q07DX Z (ip), vehicle: saline 90 % of control | dose: 110.0 micrograms/kg/injection, schedule: Q07DX Z (ip), vehicle: saline 105 % of control | dose: 220.0 micrograms/kg/injection, schedule: Q07DX Z (ip), vehicle: saline 105 % of control | dose: 440.0 micrograms/kg/injection, schedule: Q07DX Z (ip), vehicle: saline 105 % of control

Nc1cccc(CCCCc2cccc(S(=O)(=O)F)c2)c1
inactive: dose: 50.0 mg/kg/injection, schedule: Q01DX009 (ip), vehicle: saline sonified 100 % of control | dose: 100.0 mg/kg/injection, schedule: Q01DX009 (ip), vehicle: saline sonified 109 % of control | dose: 200.0 mg/kg/injection, schedule: Q01DX009 (ip), vehicle: saline sonified 109 % of control

CCOC(=O)c1c[nH]c2c(ccc3cccnc32)c1=O
inactive: dose: 15.0 mg/kg/injection, schedule: Q01DX005 (ip), vehicle: Klucel (hydroxypropylcellulose) (HPC) 99 % of control | dose: 30.0 mg/kg/injection, schedule: Q01DX005 (ip), vehicle: Klucel (hydroxypropylcellulose) (HPC) 99 % of control | dose: 50.0 mg/kg/injection, schedule: Q01DX009 (ip), vehicle: saline 99 % of control | [9] 99 % of control and 97 % of control | dose: 100.0 mg/kg/injection, schedule: Q01DX009 (ip), vehicle: saline 117 % of control | dose: 200.0 mg/kg/injection, schedule: Q01DX009 (ip), vehicle: saline 99 % of control

CCCNC(=O)Nc1cc(Cl)ccc1OC
inactive: dose: 132.0 mg/kg/injection, schedule: Q04DX003 (ip), vehicle: saline with Tween-80 100 % of control | dose: 200.0 mg/kg/injection, schedule: Q04DX003 (ip), vehicle: saline with Tween-80 100 % of control | dose: 300.0 mg/kg/injection, schedule: Q04DX003 (ip), vehicle: saline with Tween-80 100 % of control

From PubChem BioAssay AID330 (DTP/NCI, 2004)
